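48-hour exposure; five concentrations; linearly interpolated endpoints. Here, GI50 denotes the concentration required for 50% inhibition of growth. TGI is the concentration that stops growth completely.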
Tests used:
Test in all cases: growth of human tumour cells (NCI), 48 h
MALME-3M melanoma = tested on: MALME-3M melanoma
BT-549 breast = tested on: BT-549 breast
UACC-257 melanoma = tested on: UACC-257 melanoma
SNB-75 CNS = tested on: SNB-75 CNS
HCT-15 colon = tested on: HCT-15 colon
NCI/ADR-RES ovarian = tested on: NCI/ADR-RES ovarian
NCI-H23 lung = tested on: NCI-H23 lung
MOLT-4 leukemia = tested on: MOLT-4 leukemia
HOP-92 NSCLC = tested on: HOP-92 NSCLC
NCI-H226 lung = tested on: NCI-H226 lung

SMILES | GI50 (MALME-3M melanoma) | TGI (MALME-3M melanoma) | GI50 (BT-549 breast) | TGI (BT-549 breast) | GI50 (UACC-257 melanoma) | TGI (UACC-257 melanoma) | GI50 (SNB-75 CNS) | TGI (SNB-75 CNS) | GI50 (HCT-15 colon) | TGI (HCT-15 colon) | GI50 (NCI/ADR-RES ovarian) | TGI (NCI/ADR-RES ovarian) | GI50 (NCI-H23 lung) | TGI (NCI-H23 lung) | GI50 (MOLT-4 leukemia) | TGI (MOLT-4 leukemia) | GI50 (HOP-92 NSCLC) | TGI (HOP-92 NSCLC) | GI50 (NCI-H226 lung) | TGI (NCI-H226 lung)
FC(F)(F)c1cccc(-c2nn3ncccc3c2-c2ccnc(Nc3ccc4c(c3)OCCO4)n2)c1 | > 25 µM | > 25 µM | 16.4 µM | > 25 µM | 9.5 µM | > 25 µM | > 18.6 µM | > 25 µM | 6.59 µM | > 25 µM | 8.96 µM | > 25 µM | 14.8 µM | > 25 µM | 11.8 µM | > 25 µM | 5.52 µM | > 25 µM | 14.2 µM | > 25 µM
COc1ccc(Nc2ccnc(N3CCN(c4ccnc5cc(Cl)ccc45)CC3)n2)cc1 | 1.11 µM | 4.65 µM | 1.16 µM | 3.72 µM | 1.25 µM | 2.84 µM | 1.4 µM | 4.82 µM | 0.83 µM | > 100 µM | 0.769 µM | 5.22 µM | 1.65 µM | 9.4 µM | 1.56 µM | 4.37 µM | 0.32 µM | 4.5 µM | 1.41 µM | 6.09 µM
O=C(O)c1cc(CCc2cc(O)ccc2O)ccc1O |  | > 100 µM |  | > 100 µM |  | > 100 µM |  | > 100 µM |  | > 100 µM |  | > 100 µM |  | > 100 µM |  | > 100 µM |  | > 100 µM |  | > 100 µM
c1cc(N2CCN(c3ccc(C4=NCCCN4)cc3)CC2)ccc1C1=NCCCN1 | > 47.6 µM | > 100 µM | > 100 µM | > 100 µM | 99 µM | > 100 µM | > 89.4 µM | > 100 µM | > 100 µM | > 100 µM | > 100 µM | > 100 µM | 30 µM | > 100 µM | 19.4 µM | > 100 µM | 73 µM | > 100 µM | 59.3 µM | > 100 µM
CCCCNc1nc(NC2OCC(OC(C)=O)C(OC(C)=O)C2OC(C)=O)c(N=O)c(=O)n1C (centres undefined) |  | > 10 µM |  | > 10 µM |  | > 10 µM |  | > 10 µM |  | > 10 µM |  | > 10 µM |  | > 10 µM |  | > 10 µM |  | > 10 µM |  | > 10 µM
CC(C)C[C@H](NC(=O)CCn1ccc2ccccc2c1=O)B(O)O | 2.58 µM | 9.89 µM | 2.21 µM | 17.1 µM | 3.68 µM | 33.8 µM | 2.94 µM | 15.9 µM | 9.57 µM | > 100 µM | 67.1 µM | > 100 µM | 25.4 µM | > 100 µM | 1.28 µM | 5.94 µM | 10.9 µM | 67.1 µM | 1.47 µM | 3.24 µM
CC1c2ccccc2CCN1c1ccc(CO)c(Cl)c1 (centres undefined) | 22.7 µM | 54.6 µM | 17.2 µM | 37.7 µM | 0.0412 µM | 0.191 µM | 20 µM | 75 µM | 13.3 µM | 53.3 µM | 13.1 µM | 50.5 µM | 21.8 µM | > 72.3 µM | 24.6 µM | 77.7 µM | 0.19 µM | 16.6 µM | 0.0491 µM | 0.228 µM
COc1cc(C(=O)c2cc(C)c3[nH]c4ccc(O)cc4c3c2C)cc(OC)c1OC | 0.0347 µM | > 100 µM | < 0.0164 µM | 1.26 µM | 6.42 µM | > 100 µM | < 0.01 µM | 8.71 µM | 0.0196 µM | > 100 µM | < 0.01 µM |  | 0.0335 µM | > 40 µM | 0.0424 µM | > 100 µM | 0.944 µM | > 100 µM | 0.0943 µM | > 81.3 µM
